# Counter-ions that a name gives are not always drawn. Calls of active or inactive are those of the source.
# Experiments:
# [1] = biological target: Luciferin 4-monooxygenase (Photinus pyralis, UniProt P08659); assay: Counter Screen for Luciferase-based Assay Positives. [Related pubchem assays: 620, 618, 411 ]
# HT-1080 = assay: cytotoxicity in HT1080 fibrosarcoma cells, cell-based, fluorescence readout (AID 620); assay type: functional; settings: Homo sapiens
# [2] = cytotoxicity toward NIH3T3 fibroblasts, dose response, counter-screen, cell-based, ATP luminescence, mouse fibroblasts (AID 2010); assay type: functional;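 note: cells exposed to compound for about 90 hours before reading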
# [3] = inhibitors of intracellular T. cruzi replication, confirmation, NIH3T3 host cells, beta-gal luminescence (AID 2044); assay type: functional, cell-based;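 note: intracellular parasites grown in NIH/3T3 mouse fibroblasts as host cells; luminescent beta-galactosidase reporter signal from transgenic T. cruzi replicating inside host cells; inhibitors lower the luminescence signal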
# [4] = biological target: T1, Trace amine-associated receptor 1 (Homo sapiens, UniProt Q96RJ0); assay: Counterscreen for agonists of the human trace amine associated receptor 1 (hTAAR1): Fluorescence-based cell-based high throughput dose response assay to identify hTAAR1 agonist that also desensitize TAAR1 receptor response.; assay type: functional
# T1 sequence (Q96RJ0 whole entry): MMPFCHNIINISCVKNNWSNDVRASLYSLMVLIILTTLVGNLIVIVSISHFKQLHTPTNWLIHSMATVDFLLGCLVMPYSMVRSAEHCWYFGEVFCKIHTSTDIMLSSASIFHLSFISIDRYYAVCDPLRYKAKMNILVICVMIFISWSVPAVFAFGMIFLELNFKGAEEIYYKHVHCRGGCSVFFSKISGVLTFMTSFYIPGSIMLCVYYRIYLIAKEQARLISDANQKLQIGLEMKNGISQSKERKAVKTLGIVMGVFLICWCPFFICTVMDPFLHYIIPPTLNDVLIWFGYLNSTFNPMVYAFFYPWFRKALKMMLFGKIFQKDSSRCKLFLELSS
# [5] = biological target: T1, Trace amine-associated receptor 1; assay: Fluorescence-based cell-based high throughput dose response assay to identify agonists of the human trace amine associated receptor 1 (TAAR1).; assay type: functional
# [6] = control 3'UTR Renilla luciferase suppression, dose response, counter-screen for Shn3 inhibitor project, cell-based, Clone20-Shn3RL, cherry-picked (AID 624133); assay type: functional
# [7] = HepG2 cell cytotoxicity, dose response, cytotoxicity control for Shn3 inhibitor project, CellTiter-Glo, cherry-picked (AID 624134); assay type: functional, cell-based
# [8] = biological target: T2, Ubiquitin-conjugating enzyme E2 N (Homo sapiens, UniProt P61088); assay type: functional;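 note: Dose-response confirmation in a TR-FRET assay detecting UBC13-driven polyubiquitin chain formation, inhibition measured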
# T2 sequence (P61088 whole entry): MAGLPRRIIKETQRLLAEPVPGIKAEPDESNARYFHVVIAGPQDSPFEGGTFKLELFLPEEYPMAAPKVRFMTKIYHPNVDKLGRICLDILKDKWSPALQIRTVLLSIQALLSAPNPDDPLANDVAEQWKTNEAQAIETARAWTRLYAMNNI
# [9] = Shn3 3'UTR reporter inhibitors, dose response, cell-based, Clone20 osteoblasts, firefly luciferase, cherry-picked (AID 624132); assay type: functional;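 note: firefly luciferase luminescence from reporter carrying the Shn3 3'UTR in osteoblasts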
# [10] = inhibitors of SNCA 5'UTR-driven reporter translation, confirmation, H4 neuroglioma cells, luminescence (AID 1988); assay type: functional, cell-based
# [11] = Luminescence Cell-Based Dose Response HTS to Identify Inhibitors of 5'UTR Stem-Loop Driven Prion Protein mRNA Translation in H4 Neuroglioblastoma Cells. [Related pubchem assays: 1827 (Project Summary), 1813 (Primary HTS)]; assay type: functional
# [12] = inhibitors of firefly luciferase expression or activity, dose response, H4 neuroglioma cells, luminescence (AID 1990); assay type: functional, cell-based
# [13] = growth suppression of beta-catenin-knockout colon cells, dose response, cell-based, HCT116, human colon tumor (AID 1045); assay type: functional;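 note: HCT116 colon tumor cells with beta catenin knocked out; cells exposed to compound for 60 hours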
# [14] = biological target: T3, Histone-lysine N-methyltransferase NSD2 (Homo sapiens, UniProt O96028); assay type: biochemical
# T3 sequence (O96028 whole entry): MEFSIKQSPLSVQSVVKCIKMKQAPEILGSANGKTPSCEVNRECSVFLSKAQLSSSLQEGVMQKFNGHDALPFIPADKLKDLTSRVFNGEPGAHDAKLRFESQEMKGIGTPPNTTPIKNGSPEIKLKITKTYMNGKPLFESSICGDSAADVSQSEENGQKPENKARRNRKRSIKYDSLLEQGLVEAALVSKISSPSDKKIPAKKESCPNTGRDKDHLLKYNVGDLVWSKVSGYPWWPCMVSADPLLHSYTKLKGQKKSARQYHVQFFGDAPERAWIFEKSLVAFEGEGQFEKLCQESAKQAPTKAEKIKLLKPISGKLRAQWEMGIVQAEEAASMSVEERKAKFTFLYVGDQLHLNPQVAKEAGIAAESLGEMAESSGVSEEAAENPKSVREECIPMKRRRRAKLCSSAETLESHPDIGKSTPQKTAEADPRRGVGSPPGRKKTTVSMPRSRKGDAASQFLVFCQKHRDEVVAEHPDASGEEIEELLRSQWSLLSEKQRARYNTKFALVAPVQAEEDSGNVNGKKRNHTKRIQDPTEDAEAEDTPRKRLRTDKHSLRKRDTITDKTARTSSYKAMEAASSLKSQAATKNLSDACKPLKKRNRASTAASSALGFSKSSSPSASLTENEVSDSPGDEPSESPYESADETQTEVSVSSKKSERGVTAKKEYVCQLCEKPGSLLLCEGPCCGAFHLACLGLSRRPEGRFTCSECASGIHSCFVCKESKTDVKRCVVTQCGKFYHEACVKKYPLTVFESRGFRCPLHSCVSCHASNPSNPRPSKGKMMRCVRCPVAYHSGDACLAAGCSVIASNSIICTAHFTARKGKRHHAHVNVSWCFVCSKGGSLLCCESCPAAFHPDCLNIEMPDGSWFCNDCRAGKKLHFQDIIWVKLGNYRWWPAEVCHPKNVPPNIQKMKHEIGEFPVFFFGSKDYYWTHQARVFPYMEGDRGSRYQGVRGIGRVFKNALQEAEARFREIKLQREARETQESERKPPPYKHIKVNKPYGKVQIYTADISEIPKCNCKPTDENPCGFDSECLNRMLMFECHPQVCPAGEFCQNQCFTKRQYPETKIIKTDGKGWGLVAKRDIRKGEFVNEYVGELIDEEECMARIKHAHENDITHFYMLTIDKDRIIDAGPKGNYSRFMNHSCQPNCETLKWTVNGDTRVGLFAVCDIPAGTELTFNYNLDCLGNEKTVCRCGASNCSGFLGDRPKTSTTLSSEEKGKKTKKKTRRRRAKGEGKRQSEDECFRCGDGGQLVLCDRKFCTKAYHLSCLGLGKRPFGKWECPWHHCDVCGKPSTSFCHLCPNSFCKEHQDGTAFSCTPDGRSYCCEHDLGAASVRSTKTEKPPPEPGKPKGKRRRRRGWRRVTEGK
# [15] = growth suppression of PTEN-null colon cells, dose response, cell-based, HCT116 PTEN knockout (AID 1047); assay type: functional;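 note: HCT116 colon tumor cells with PTEN knocked out; cells exposed to compound for 60 hours before readout; potency for loss of cell viability measured by luminescence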
# Estrogen receptor beta = Estrogen receptor beta (Homo sapiens, UniProt Q92731); assay: ERβ–SRC-3 coactivator interaction inhibitors, confirmation, orthogonal assay, biochemical, ELISA, streptavidin-HRP readout (AID 1060)
# Nonstructural protein 1 = Nonstructural protein 1 (Influenza A virus, UniProt Q194T2); assay type: functional, Influenza A virus (A/California/07/2009(H1N1))
# [16] = biological target: Ras and Rab interactor 1/Tyrosine-protein kinase ABL1 (Homo sapiens, UniProt P00519+Q13671); assay type: functional;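 note: biochemical TR-FRET dose-response test measuring inhibition of binding between Rin1 and Abl proteins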
# Protein skinhead-1 = biological target: T4, Protein skinhead-1 (Caenorhabditis elegans, UniProt P34707); assay type: functional
# T4 sequence (P34707 whole entry): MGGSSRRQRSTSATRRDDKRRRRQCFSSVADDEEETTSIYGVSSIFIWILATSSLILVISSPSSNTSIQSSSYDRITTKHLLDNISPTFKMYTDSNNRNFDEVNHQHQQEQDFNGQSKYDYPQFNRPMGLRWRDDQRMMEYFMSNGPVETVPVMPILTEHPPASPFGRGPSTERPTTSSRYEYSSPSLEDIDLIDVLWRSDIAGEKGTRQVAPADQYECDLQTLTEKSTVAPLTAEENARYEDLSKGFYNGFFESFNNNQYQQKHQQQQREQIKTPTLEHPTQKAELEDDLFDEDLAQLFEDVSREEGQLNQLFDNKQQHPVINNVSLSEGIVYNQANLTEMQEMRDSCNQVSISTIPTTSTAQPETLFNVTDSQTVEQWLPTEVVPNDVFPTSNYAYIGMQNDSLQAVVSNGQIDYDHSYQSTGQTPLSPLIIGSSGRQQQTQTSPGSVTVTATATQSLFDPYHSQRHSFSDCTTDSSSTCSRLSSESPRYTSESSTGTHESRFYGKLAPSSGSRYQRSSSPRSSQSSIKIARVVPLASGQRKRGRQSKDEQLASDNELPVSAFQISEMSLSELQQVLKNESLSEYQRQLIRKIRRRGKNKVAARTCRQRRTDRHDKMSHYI
# [17] = biological target: T5, Heat shock factor protein 1 (Mus musculus, UniProt P38532); assay: HSF1 potentiators in luciferase reporter cells, confirmation, cell-based, NIH3T3, luminescence, dose retest (AID 435004); assay type: functional;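 note: stress induced by proteasome inhibitor MG132 added 30 min after compound; luciferase reporter driven by HSF1 response element in NIH3T3 cells; actives raise luminescence as potentiators of the MG132 stress response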
# T5 sequence (P38532 whole entry): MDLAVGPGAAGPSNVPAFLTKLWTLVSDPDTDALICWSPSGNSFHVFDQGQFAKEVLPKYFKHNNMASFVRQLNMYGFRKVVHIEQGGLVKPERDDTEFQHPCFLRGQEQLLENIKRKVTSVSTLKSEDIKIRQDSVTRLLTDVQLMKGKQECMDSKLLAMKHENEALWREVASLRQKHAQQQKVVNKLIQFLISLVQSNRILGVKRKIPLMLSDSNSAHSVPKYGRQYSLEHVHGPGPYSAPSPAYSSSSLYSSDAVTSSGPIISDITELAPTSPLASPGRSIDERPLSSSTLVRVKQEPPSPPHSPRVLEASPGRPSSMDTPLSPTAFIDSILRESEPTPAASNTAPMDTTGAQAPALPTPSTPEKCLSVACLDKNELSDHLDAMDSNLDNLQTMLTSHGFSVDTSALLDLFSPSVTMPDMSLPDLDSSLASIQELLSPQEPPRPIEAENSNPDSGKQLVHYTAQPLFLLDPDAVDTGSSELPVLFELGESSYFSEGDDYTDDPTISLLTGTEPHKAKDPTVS
# [18] = THP-1 cell cytotoxicity, dose response, cytotoxicity control for non-replicating M. tuberculosis project (AID 489025); assay type: functional
# [19] = biological target: FAD-linked sulfhydryl oxidase ALR (Homo sapiens, UniProt P55789); assay: inhibitors of human ALR sulfhydryl oxidase, dose response, biochemical, H2O2 detection, luminescence, cherry-pick (AID 493248)
# Chain of FAD-linked sulfhydryl oxidase ALR (P55789 whole entry): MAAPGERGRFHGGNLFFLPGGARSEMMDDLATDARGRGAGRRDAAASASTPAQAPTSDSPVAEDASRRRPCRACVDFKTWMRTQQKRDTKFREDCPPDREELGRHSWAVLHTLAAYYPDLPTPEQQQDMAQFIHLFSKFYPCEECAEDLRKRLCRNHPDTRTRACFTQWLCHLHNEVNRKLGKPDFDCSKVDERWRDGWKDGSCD
# Chain of Luciferin 4-monooxygenase (P08659 whole entry): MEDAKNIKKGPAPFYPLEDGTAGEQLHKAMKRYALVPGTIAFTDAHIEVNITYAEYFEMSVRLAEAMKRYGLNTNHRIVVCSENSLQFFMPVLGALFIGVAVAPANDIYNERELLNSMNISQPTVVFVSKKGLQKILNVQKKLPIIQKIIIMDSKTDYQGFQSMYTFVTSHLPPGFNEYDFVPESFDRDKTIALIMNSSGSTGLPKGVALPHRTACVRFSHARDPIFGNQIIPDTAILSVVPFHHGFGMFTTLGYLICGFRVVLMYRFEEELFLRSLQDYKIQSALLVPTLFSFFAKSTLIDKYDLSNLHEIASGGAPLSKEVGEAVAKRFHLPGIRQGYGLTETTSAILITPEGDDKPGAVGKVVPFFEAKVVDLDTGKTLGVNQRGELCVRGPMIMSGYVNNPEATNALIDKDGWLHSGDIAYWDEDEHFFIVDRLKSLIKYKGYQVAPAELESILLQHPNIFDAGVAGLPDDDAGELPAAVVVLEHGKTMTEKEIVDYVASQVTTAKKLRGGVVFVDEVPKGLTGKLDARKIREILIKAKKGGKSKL
# Chain of Estrogen receptor beta (Q92731 whole entry): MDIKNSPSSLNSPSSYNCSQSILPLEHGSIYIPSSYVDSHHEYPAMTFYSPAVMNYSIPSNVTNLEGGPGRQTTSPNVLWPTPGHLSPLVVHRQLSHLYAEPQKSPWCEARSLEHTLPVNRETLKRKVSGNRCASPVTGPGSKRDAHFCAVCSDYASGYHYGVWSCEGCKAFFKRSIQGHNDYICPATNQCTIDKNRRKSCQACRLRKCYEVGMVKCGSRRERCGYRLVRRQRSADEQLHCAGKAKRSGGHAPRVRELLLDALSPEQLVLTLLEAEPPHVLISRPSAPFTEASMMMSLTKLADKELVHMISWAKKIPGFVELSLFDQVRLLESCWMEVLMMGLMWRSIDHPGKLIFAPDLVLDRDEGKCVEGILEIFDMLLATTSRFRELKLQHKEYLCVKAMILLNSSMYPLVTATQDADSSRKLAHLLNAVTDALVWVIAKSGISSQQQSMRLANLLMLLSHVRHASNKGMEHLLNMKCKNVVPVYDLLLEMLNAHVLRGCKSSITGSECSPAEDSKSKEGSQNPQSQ
# Chain of Ras and Rab interactor 1/Tyrosine-protein kinase ABL1 (P00519 whole entry): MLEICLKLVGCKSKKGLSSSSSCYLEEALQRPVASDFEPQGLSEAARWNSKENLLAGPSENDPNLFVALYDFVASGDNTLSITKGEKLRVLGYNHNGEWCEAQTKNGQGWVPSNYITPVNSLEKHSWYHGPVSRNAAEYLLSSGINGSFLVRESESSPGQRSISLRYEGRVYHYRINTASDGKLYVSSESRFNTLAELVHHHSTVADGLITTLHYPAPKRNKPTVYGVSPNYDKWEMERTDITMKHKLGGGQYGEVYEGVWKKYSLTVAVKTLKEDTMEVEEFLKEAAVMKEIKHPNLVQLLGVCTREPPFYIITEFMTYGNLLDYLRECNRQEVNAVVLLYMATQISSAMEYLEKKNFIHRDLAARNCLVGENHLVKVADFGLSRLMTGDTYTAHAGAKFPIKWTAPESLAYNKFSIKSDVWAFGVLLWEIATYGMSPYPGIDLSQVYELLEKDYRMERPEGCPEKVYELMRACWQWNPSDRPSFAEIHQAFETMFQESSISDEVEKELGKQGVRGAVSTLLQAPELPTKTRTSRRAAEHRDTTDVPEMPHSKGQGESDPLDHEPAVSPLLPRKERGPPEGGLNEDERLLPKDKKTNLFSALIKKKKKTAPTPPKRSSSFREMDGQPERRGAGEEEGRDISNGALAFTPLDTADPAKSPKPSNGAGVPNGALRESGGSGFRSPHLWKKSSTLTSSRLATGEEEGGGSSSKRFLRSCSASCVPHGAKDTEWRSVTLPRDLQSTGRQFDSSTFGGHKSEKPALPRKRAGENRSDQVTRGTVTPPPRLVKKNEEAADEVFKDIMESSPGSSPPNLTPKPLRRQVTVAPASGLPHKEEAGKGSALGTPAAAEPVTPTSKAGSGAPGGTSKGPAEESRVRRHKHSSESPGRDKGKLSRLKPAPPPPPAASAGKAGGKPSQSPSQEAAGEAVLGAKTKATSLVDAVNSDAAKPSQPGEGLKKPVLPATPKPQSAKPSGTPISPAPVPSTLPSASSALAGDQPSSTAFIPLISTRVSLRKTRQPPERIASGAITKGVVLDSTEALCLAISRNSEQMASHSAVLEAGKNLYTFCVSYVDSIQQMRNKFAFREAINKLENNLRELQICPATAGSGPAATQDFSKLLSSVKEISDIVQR
# Chain of Ras and Rab interactor 1/Tyrosine-protein kinase ABL1 (Q13671 whole entry): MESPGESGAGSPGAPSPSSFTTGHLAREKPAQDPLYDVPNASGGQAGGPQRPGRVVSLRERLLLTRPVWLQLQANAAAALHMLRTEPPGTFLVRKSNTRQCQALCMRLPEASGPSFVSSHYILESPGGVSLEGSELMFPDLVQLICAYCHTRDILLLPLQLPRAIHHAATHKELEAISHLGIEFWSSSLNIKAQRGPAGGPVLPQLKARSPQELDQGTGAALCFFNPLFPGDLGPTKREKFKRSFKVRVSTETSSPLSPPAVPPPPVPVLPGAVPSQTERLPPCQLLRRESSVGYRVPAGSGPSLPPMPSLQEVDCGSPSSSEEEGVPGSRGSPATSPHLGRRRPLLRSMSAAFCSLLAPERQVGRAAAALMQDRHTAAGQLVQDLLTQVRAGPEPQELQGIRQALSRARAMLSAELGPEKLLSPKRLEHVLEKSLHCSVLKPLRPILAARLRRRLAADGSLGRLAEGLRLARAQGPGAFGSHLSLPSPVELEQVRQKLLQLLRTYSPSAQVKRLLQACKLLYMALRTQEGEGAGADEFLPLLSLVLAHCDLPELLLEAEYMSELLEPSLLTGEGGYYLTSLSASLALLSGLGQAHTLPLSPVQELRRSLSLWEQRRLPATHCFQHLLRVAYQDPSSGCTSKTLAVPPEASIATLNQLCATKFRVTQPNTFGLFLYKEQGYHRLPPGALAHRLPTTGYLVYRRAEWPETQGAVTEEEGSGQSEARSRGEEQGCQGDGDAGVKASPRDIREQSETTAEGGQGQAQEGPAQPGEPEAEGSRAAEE
# Chain of Nonstructural protein 1 (Q194T2 whole entry): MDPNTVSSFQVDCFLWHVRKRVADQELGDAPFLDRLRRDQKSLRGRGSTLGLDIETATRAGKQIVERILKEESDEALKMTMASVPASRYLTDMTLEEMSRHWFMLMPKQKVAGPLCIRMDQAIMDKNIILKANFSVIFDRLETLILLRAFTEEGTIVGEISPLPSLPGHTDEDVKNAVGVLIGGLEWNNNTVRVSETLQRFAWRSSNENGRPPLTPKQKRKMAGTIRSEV
smiles,measurement,setting,value
O=C(CSc1nnc(-c2csc3c2CCCC3)o1)Nc1ccccc1,EC50,[1],4.34 µM (active)
same,EC50,HT-1080,> 50 µM (not active)
CC(=O)n1cc([C@H]2C=C(C(=O)N3CCN(Cc4ccc5c(c4)OCO5)CC3)O[C@@H](OCc3ccc(CO)cc3)C2)c2ccccc21,EC50,cells,0.197 µM (active)
same,EC50,[2],> 30 µM (not active)
same,EC50,[3],< 0.1 µM (active)
c1ccc(CN(CC2=NCCN2)c2ccccc2)cc1 [ANTAZOLINE HYDROCHLORIDE],IC50,[4],> 29.9 µM (inactive)
same,EC50,[5],4.31 µM (active)
CCCCCCCSc1cc(OC)c(CCNC)cc1OC,AC50,[6],10.5 µM (active)
same,AC50,[7],8.47 µM (active)
same,IC50,[8],> 20 µM (inactive)
same,AC50,[9],10.6 µM (active)
same,EC50,[10],11.9 µM (active)
same,EC50,[11],> 120 µM (not active)
same,EC50,[12],> 120 µM (not active)
same,EC50,[13],8.71 µM (active)
same,AC50,[14],17.5 µM (active)
same,EC50,[15],9.72 µM (active)
N#Cc1c(NC(=O)CN2CCCCC2)sc2c1CCCC2,IC50,Estrogen receptor beta,0.0343 µM (not active)
O=C(CCCOc1ccccc1)N1CCCCC1,EC50,[1],< 0.2 µM (active)
same,EC50,[10],8.68 µM (active)
same,EC50,[11],8.9 µM (active)
same,EC50,HT-1080,> 50 µM (not active)
CC1CN(CCOCCSc2ccc(Cl)cc2)CC(C)O1 (stereo not drawn),EC50,cells,0.025 µM (active)
same,EC50,[2],> 60 µM (not active)
same,EC50,[3],< 0.1 µM (active)
CN1CCN(c2ccc(NC(=O)COc3ccccc3Cl)cc2)CC1,IC50,Estrogen receptor beta,0.814 µM (not active)
CC1NC(=O)NC1CCCCCC(=O)Nc1ccc(F)c(Cl)c1 (stereo not drawn),IC50,Nonstructural protein 1,1.16 µM (active)
same,IC50,[16],0.015 µM (active)
same,AC50,[14],0.343 µM (active)
CCCc1cc(C(=O)Nc2nccs2)cs1,EC50,[1],< 0.2 µM (active)
same,IC50,Protein skinhead-1,> 100 µM (inactive)
same,EC50,HT-1080,> 50 µM (not active)
same,EC50,[17],> 260 µM (inconclusive)
COc1ccc(O)c(C(=O)CC(=O)c2ccc(F)cc2)c1,EC50,[1],0.35 µM (active)
same,EC50,HT-1080,> 50 µM (not active)
same,CC50,[18],> 40 µM (active)
CCN(CCNC(=O)C1CCCN(Cc2nc(-c3ccc(OC)cc3)oc2C)C1)c1ccccc1 (stereo not drawn),EC50,cells,0.383 µM (active)
same,EC50,[2],7.96 µM (active)
same,EC50,[3],< 0.1 µM (active)
same,AC50,[19],0.01 µM (active)
O=C(C1=C[C@H](C2CCCCC2)C[C@H](OCc2ccc(CO)cc2)O1)N1CCN(Cc2ccc3c(c2)OCO3)CC1,EC50,cells,0.156 µM (active)
same,EC50,[2],> 60 µM (not active)
same,EC50,[3],< 0.1 µM (active)

# Source: ChEMBL document CHEMBL1201862, “PubChem BioAssay data set” (2004)
